Laboratory results taken from patent US10301298B2, “Methods, compounds, and compositions for the treatment of angiotensin-related diseases” (University of Southern California, priority 2013, dated 2019).
“Also recorded” adds a separate entry of the source.

Key:
[1] = target: T1, Mas (Homo sapiens, UniProt P04201); experiment: Competition binding assay, displacement of fluorescent Ang(1-7) from Mas-transfected CHO cells; design: concentration or dose not given beside the values; conditions: CHO cells transfected with Human mas1, on ice
T1 construct: expressed in transfected cells
T1 sequence (P04201 1-325): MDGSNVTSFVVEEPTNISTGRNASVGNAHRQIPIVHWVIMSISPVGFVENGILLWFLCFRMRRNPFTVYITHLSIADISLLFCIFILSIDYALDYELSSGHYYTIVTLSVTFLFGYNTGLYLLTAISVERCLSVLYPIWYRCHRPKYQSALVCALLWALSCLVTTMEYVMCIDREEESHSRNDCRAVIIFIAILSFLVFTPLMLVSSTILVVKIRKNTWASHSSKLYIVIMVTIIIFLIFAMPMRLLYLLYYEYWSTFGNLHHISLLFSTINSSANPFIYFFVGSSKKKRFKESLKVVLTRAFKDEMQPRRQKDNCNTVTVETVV
Protocol: CHO cells stably transfected with recombinant Human mas1 proto-oncogen driven by the human cytomegalovirus were grown to 80% confluency. The cells were detached with trypsin and harvested by centrifugation. Cells were washed three times in progressively colder buffers. The final number of cells per assay was 5×10^5. All subsequent steps were performed on ice. Test compound was added to the cells for 10 minutes prior to addition of fluorescently labeled A(1-7). After 10 minutes further incubation, the cells were washed to remove unbound A(1-7) and the fluorescence bound was read at an excitation of 490 nm and an emission of 520 nm.

[2] = target: T1, Mas; experiment: NO production in CHO cells stably transfected with Human Mas1; type: cell-based
Protocol: Transfected cells that express Mas were used to identify and evaluate provided compounds as Mas agonists, by promoting NO production as readouts. CHO cells stably transfected with pTEJ-8 vector containing recombinant Human Mas1 clone were grown to confluency. Cells were washed three times for 30/5/5 minutes with prewarmed (37° C.) Tyrodes Salts (supplemented with 1 g/L NaHCO3, and 1.9 g/L d-Glucose). Cells were incubated for a short time in 700 μL of supplemented Tyrodes salts containing 10 μM PTIO, 100 μM DAN, and 1 mM L-arginine. When using antagonist for competition assays, cells were exposed to the inhibitor at 1×10^−7 M for 15 minutes, before additional drugs are added.
Chemicals (10^−8 to 10^−6 M or the maximum concentration found not to cause cytotoxicity) to be screened were added to the cell medium and the plates were agitated for 1 minute before being placed into the incubator for 2 hours. After 2 hours, cellular supernatants were transferred to opaque 96 well plates, and the fluorescence intensity was recorded at an ex/em of 380/425.

[3] = test system: db/db mice; experiment: Bone marrow cell counts and progenitor colonies in db/db mice; type: in vivo; conditions: 500 mcg/kg/day subcutaneously, 14 days
Protocol: The femurs and tibia were collected from db/db mice treated 500 mcg/kg/day Ang(1-7) or Compound 7 subcutaneously for 14 days were euphanized and the bone marrow were collected by flushing with PBS containing 2% fetal calf serum. After collection of the bone marrow, the red blood cells will be lysed with a hypotonic solution (described above), mixed with 0.04% trypan blue and the number of nucleated cells was assessed by hematocytometer under light microscopy. Aliquots of cells were then resuspended at 1×10^6 cells/ml (GM and GEMM, bone marrow), 1.5×10^6 cells/ml (BFU-E, bone marrow). One hundred μ1 of each suspension was added to 900 μl of semisolid medium containing 0.9% methyl cellulose in Iscove's MDM, 15% fetal calf serum, 1% bovine serum albumin, 10 μg/ml bovine pancreatic insulin, 200 μg/ml human transferrin, 10^−4 M 2-mercaptoethanol, 2 mM glutamine, 10 ng/ml recombinant murine interleukin 3, 10 ng/ml recombinant human interleukin 6, 50 ng/ml recombinant murine stem cell factor and 3 units/ml erthropoietin. This mixture was then added to duplicate wells of a 24 well plate. The cultures were then placed at 37° C. in a humidified atmosphere of 5% CO2 in air. At day 14, the number of progenitor colonies formed was enumerated under phase contrast microscopy.
The bone marrow cells were also cultured to assess the number of MSCs by a CFU—F assay. 2.5×10^5 cells/ml, 2 ml per well, were diluted into Mesencult medium (Stem Cell Technologies, Vancouver, BC, Canada) and 2 mL were placed in each well of a 24 well plate. The cultures were then incubated at 37° C. in a humidified atmosphere of 5% CO2 in air. At days 2, 5 and 8, the number of progenitor colonies formed was enumerated under phase contrast microscopy.

Compound	% Displacement [1] [%]	ability to enhance NO production (fluorescence) ([2]; Mas-transfected CHO cells)	NO production with co-administration of A779 ([2]; with A779, selective Mas antagonist, 1×10^−7 M)	bone marrow counts [3]
CCCCOC(=O)NS(=O)(=O)c1ccc(OC(F)(F)F)cc1-c1ccc(CN2CCN(C)C2=O)cn1 [Compound 8, butyl (2-(5-((3-methyl-2-oxoimidazolidin-1-yl)methyl)pyridin-2-yl)-4-(trifluoromethoxy)phenyl) sulfonylcarbamate]	18.6			
Asp-Arg-Val-Tyr-Ile-His-Pro [Ang(1-7), reference compound]		concentration dependent increase in NO	back to baseline fluorescence	increase bone marrow counts; also recorded: increased the bone marrow counts
CCCCOC(=O)NS(=O)(=O)c1ccc(OC(F)(F)F)cc1-c1ccc(CN2CCN(C)CC2)cn1 [Compound 10, butyl (2-(5-((4-methylpiperazin-1-yl)methyl)pyridin-2-yl)-4-(trifluoromethoxy)phenyl)sulfonylcarbamate]	22.0			
CCCCOC(=O)NS(=O)(=O)c1ccc(OC(F)(F)F)cc1-c1ncc(Cn2ccnc2)s1 [Compound 11, butyl (2-(5-((1H-imidazol-1-yl)methyl)thiazol-2-yl)-4-(trifluoromethoxy)phenyl)sulfonylcarbamate]	23.0			
CCCCOC(=O)NS(=O)(=O)c1ccc(OC(F)(F)F)cc1-c1ccc(CN2CCOCC2)cn1 [Compound 9, butyl (2-(5-(morpholinomethyl)pyridin-2-yl)-4-(trifluoromethoxy)phenyl)sulfonyl-carbamate]	17.3			
